Test results reported in patent US20110053995A1, “BENZENESULFONANILIDE COMPOUND INHIBITORS OF UREA TRANSPORTERS” (THE REGENTS OF THE UNIVERSITY OF CALIFORNIA, priority 2006, published 2011).

Tests used:
Assay type in all cases: cell-based
UT-B [1] = target: T1, UT-B (Homo sapiens, UniProt Q13336); assay: RBC lysis assay, human RBCs; conditions: lysis assay, FIG. 5B, read-out: apparent EC50
T1 construct: a red blood cell (i.e., erythrocyte), which endogenously expresses the urea transporter UT-B; endogenous in cells; host or cells: human red blood cells (whole venous blood, single donor)
T1 sequence (Q13336 1-389): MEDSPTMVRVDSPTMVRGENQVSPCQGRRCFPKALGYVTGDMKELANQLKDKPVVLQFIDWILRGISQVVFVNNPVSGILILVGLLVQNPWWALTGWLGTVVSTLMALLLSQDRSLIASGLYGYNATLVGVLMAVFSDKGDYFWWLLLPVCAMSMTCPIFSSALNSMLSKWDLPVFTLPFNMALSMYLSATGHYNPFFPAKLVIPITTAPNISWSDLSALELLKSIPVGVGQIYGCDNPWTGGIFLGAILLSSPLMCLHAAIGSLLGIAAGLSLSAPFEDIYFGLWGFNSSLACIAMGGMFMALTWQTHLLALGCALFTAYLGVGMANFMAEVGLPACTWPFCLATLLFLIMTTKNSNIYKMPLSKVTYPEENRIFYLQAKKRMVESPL
Source text: Vigorous mixing was achieved by repeated pipetting.

mouse UT-B = target: T2, mouse UT-B (Mus musculus, UniProt Q8VHL0); assay: Stopped-flow light scattering, N-methylurea transport in mouse RBCs
T2 construct: the indicator cells are red blood cells that endogenously express the UT-B urea transporter; endogenous in cells; host or cells: red blood cells of wild-type CD1 mice
T2 sequence (Q8VHL0 1-384): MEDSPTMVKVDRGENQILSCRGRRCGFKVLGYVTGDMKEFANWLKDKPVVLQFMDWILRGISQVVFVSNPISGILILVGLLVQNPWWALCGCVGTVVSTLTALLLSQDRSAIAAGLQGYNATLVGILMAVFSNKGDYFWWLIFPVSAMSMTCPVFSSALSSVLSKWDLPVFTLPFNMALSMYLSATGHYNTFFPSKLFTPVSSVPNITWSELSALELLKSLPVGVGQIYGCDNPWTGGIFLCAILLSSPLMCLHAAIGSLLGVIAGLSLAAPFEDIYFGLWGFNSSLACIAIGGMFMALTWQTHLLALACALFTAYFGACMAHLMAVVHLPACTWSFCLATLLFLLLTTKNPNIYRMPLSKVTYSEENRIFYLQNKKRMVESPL
Experimental: As a positive control, 0.7 mM phloretin was added to the RBC suspension prior to stopped-flow experiments. Measurements of water permeability were carried out similarly, with sucrose (cell-impermeant) used instead of urea to establish a 250-mM osmotic gradient. As a positive control, HgCl2 (0.3 mM) was added to the RBC suspension prior to stopped-flow measurements. Osmotic water permeability coefficients (Pf) were computed from light scattering data as described (van Hoek et al., J Biol Chem. 267:18267-69 (1992)).
For stopped-flow experiments, a 100-mM gradient of urea (for human RBCs) or N-methylurea (for mouse RBCs) was used to minimize competition effects (apparent urea and N-methylurea affinities at 23° C. are approximately 200 and approximately 100 mM, respectively) (Mayrand et al., J Gen Physiol. 81:221-37 (1983)). N-methylurea, with greater than 2-fold slower RBC permeability than urea, was used in mouse studies to better resolve overlapping water and urea transport kinetics. Dose-response data were also collected for human RBCs using a high concentration of 1 M urea to distinguish between competitive vs. non-competitive inhibitor binding.
For these studies using mouse RBCs, methylurea was used as the transported solute instead of urea because its transport is slower, allowing better estimation of EC50 values.

UT-B [2] = target: T1, UT-B; assay: Stopped-flow light scattering, urea transport in human RBCs; conditions: for inhibition of urea transport, inhibitor added externally only (sidedness): inhibitor only in urea-containing solution at time of stopped-flow; for reversibility of inhibition after washing of RBCs: 10 min pre-incubation (0.1 μM ureainh-101, 0.4 μM ureainh-302), then washout
Experimental: RBC urea and water permeabilities were assayed by stopped-flow light scattering using a Hi-Tech Sf-51 instrument (Wiltshire, UK). […] After an initial osmotic shrinking phase, the kinetics of increasing cell volume caused by urea influx were measured as the time-course of 90° scattered light intensity at 530 nm, with increasing cell volume resulting in reduced scattered light intensity. As a positive control, 0.7 mM phloretin was added to the RBC suspension prior to stopped-flow experiments. Measurements of water permeability were carried out similarly, with sucrose (cell-impermeant) used instead of urea to establish a 250-mM osmotic gradient. As a positive control, HgCl2 (0.3 mM) was added to the RBC suspension prior to stopped-flow measurements. Osmotic water permeability coefficients (Pf) were computed from light scattering data as described (van Hoek et al., J Biol Chem. 267:18267-69 (1992)).
After repeating the 96-well plate RBC lysis assay to confirm compound activity (see Example 2), bona fide urea transport inhibition was determined by stopped-flow light scattering from the kinetics of urea influx (RBC swelling) in response to an inwardly directed urea gradient. Rapid mixing of an RBC suspension with a hyperosmolar solution containing excess 250 mM urea produced rapid cell shrinking due to osmotic water efflux, followed by cell swelling as urea (and water) influx occurred.
To determine EC50 values for urea transport inhibition directly, RBC urea transport was measured by stopped-flow light scattering using a non-saturating concentration of extracellular urea (to avoid possible competition effects). EC50 for inhibition of RBC urea transport was determined independently by comparing stopped-flow light scattering curves to a model of cell shrinking-swelling. […]
The two coupled differential equations describing water efflux and solute influx in response to externally added urea or methylurea were numerically integrated using the forward Euler method (Δt=0.01 s) to reproduce the biphasic changes in cell volume observed experimentally. […] For each time step, a new cell volume (normalized to the initial size; V(i+1)/V(0)) and a new cell permeant concentration (U(i+1)) were calculated from V(i+1)/V(0)=V(i)/V(0)−Δt·Pf·(S/V(0))·vw·[Ie(1−V(i)/V(0))+(Ue−Uc(i))] and Uc(i+1)=Uc(i)/V(0)−Δt·Us·(S/V(0))·vw·(Ue−Uc(i)). […] The product of Pf and the surface area-to-volume ratio (S/V(0)) was determined to be 3.4×10^2 s^−1 and 8.5×10^2 s^−1 for human and mouse erythrocytes, respectively, from water permeability measurements. […]

SMILES | EC50 (UT-B [1]) | inhibitory potency against mouse UT-B (mouse UT-B) | inhibition of urea transport, inhibitor added externally only (sidedness) (UT-B [2]; 0.1 μM) | reversibility of inhibition after washing of RBCs (UT-B [2]) | inhibition of urea transport, inhibitor added externally only (sidedness) (UT-B [2]; 0.2 μM)
NC(=O)CSc1oc(-c2ccccc2)nc1S(=O)(=O)c1ccc(Br)cc1 [ureainh-101] | 30 nM | good inhibitory potencies | did not inhibit urea transport | fully reversible inhibition | 
Cc1ccc(Nc2nnc(-c3ccc(C(N)=O)cc3)c3ccccc23)cc1 [ureainh-302] | 100 nM | good inhibitory potencies |  | fully reversible inhibition | had a sizable effect
